Experimental data reported in patent US10167262B2, “Herbicidal substituted 3-arylpyrazoles” (FMC CORPORATION, priority 2014, dated 2019).
Where two headings read alike, the source gives them in different places.

Key:
Format in all cases: in vivo
kochia (Kochia scoparia) = test: Test C postemergence greenhouse test, plant response rating 0-100; settings: Bassia scoparia, post-emergence
How it was run: (§1)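 Postemergence spray of formulated test chemicals on plants 2 to 18 cm tall (1- to 4-leaf stage) grown in peat/vermiculite medium. Greenhouse hold 13 to 15 days, then visual comparison with untreated controls on a 0-100 scale (0 no effect, 100 complete control); dash means no test result.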

[1] = test system: chickweed (common chickweed, Stellaria media); test: as above; settings: Stellaria media, post-emergence
How it was run: as §1

wild oat (Avena fatua) = test: as above; settings: Avena fatua, post-emergence
How it was run: as §1

[2] = test system: pigweed (Amaranthus retroflexus); test: Test C pre-/postemergence greenhouse test, plant response rating 0-100; settings: Amaranthus retroflexus; for pest or weed control at 62 g/ha: 62 g ai/ha; for pest or weed control at 125 g/ha: 125 g ai/ha; for pest or weed control at 250 g/ha: 250 g ai/ha
How it was run: (§2)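 Seeds were sown in a loam soil–sand blend and sprayed preemergence with test chemicals in a non-phytotoxic solvent mixture containing surfactant; postemergence plants in peat/vermiculite medium were treated at 2–18 cm (1- to 4-leaf stage). After 13 to 15 days in the greenhouse, injury was rated visually against untreated controls.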

[3] = test system: winter wheat (Triticum aestivum); test: as above; settings: Triticum aestivum; for plant injury at 62 g/ha: 62 g ai/ha; for plant injury at 125 g/ha: 125 g ai/ha; for plant injury at 250 g/ha: 250 g ai/ha
How it was run: as §2

corn (Zea mays) = test: as above; settings: Zea mays; for Corn plant response rating (crop injury, 0 = no effect, 100 = complete kill) at 250 g/ha: 250 g ai/ha
How it was run: as §2

[4] = test system: yellow nutsedge (Cyperus esculentus); test: as above; settings: Cyperus; for pest or weed control at 62 g/ha: 62 g ai/ha; for pest or weed control at 125 g/ha: 125 g ai/ha; for pest or weed control at 250 g/ha: 250 g ai/ha
How it was run: as §2

soybean (Glycine max) = test: as above; settings: Glycine max; for plant injury at 62 g/ha: 62 g ai/ha; for plant injury at 125 g/ha: 125 g ai/ha; for plant injury at 250 g/ha: 250 g ai/ha
How it was run: as §2

[5] = test system: lambsquarters (Chenopodium album); test: as above; settings: Chenopodium album; for pest or weed control at 62 g/ha: 62 g ai/ha; for pest or weed control at 125 g/ha: 125 g ai/ha; for pest or weed control at 250 g/ha: 250 g ai/ha
How it was run: as §2

[6] = test system: johnsongrass (Sorghum halepense); test: as above; settings: Sorghum halepense; for pest or weed control at 62 g/ha: 62 g ai/ha; for pest or weed control at 125 g/ha: 125 g ai/ha; for pest or weed control at 250 g/ha: 250 g ai/ha
How it was run: as §2

[7] = test system: giant foxtail (Setaria faberii); test: as above; settings: Setaria faberi; for pest or weed control at 62 g/ha: 62 g ai/ha; for pest or weed control at 125 g/ha: 125 g ai/ha; for pest or weed control at 250 g/ha: 250 g ai/ha
How it was run: as §2

[8] = test system: galium (catchweed bedstraw, Galium aparine); test: as above; settings: Galium; for pest or weed control at 62 g/ha: 62 g ai/ha; for pest or weed control at 125 g/ha: 125 g ai/ha; for pest or weed control at 250 g/ha: 250 g ai/ha
How it was run: as §2

[9] = test system: Italian ryegrass (Lolium multiflorum); test: as above; settings: Lolium multiflorum; for pest or weed control at 62 g/ha: 62 g ai/ha; for pest or weed control at 125 g/ha: 125 g ai/ha; for pest or weed control at 250 g/ha: 250 g ai/ha
How it was run: as §2

[10] = post-emergence, Postemergence, read-out: Plant response rating (0 to 100), Pigweed
[11] = post-emergence, Postemergence, scale 0 to 100
[12] = pre-emergence, Preemergence, read-out: Plant response rating, Pigweed
[13] = pre-emergence, Preemergence, 500 g ai/ha
[14] = post-emergence, Postemergence, read-out: Plant response rating (0 to 100), Wheat
[15] = pre-emergence, Preemergence, read-out: Plant response rating, Wheat
[16] = post-emergence, Postemergence, read-out: Plant response rating (0 to 100), Nutsedge, Yellow
[17] = pre-emergence, Preemergence, read-out: Plant response rating, Nutsedge, Yellow
[18] = post-emergence, Postemergence, read-out: Plant response rating (0 to 100), Soybean
[19] = pre-emergence, Preemergence, read-out: Plant response rating, Soybean
[20] = post-emergence, Postemergence, read-out: Plant response rating (0 to 100), Lambsquarters
[21] = pre-emergence, Preemergence, read-out: Plant response rating, Lambsquarters
[22] = post-emergence, Postemergence, read-out: Plant response rating (0 to 100), Johnsongrass
[23] = pre-emergence, Preemergence, read-out: Plant response rating, Johnsongrass
[24] = post-emergence, Postemergence, read-out: Plant response rating (0 to 100), Foxtail, Giant
[25] = pre-emergence, Preemergence, read-out: Plant response rating, Foxtail, Giant
[26] = post-emergence, Postemergence, read-out: Plant response rating (0 to 100), Galium
[27] = pre-emergence, Preemergence, read-out: Plant response rating, Galium
[28] = post-emergence, Postemergence, read-out: Plant response rating (0 to 100), Ryegrass, Italian
[29] = pre-emergence, Preemergence, read-out: Plant response rating, Ryegrass, Italian

Clc1cc(Cl)cc(-c2n[nH]cc2C(=NN2CCCC2)c2ccccc2)c1 [Compound 30, N-[[3-(3,5-dichlorophenyl)-1H-pyrazol-4-yl]phenylmethylene]-1-pyrrolidinamine]
pest or weed control at 62 g/ha (kochia (Kochia scoparia); 62 g ai/ha): 40%
pest or weed control at 125 g/ha (kochia (Kochia scoparia); 125 g ai/ha): 85%
pest or weed control at 250 g/ha (kochia (Kochia scoparia); 250 g ai/ha, scale 0 to 100): 98%
pest or weed control at 31 g/ha ([1]; 31 g ai/ha): 100%
pest or weed control at 62 g/ha ([1]; 62 g ai/ha): 100%
pest or weed control at 125 g/ha ([1]; 125 g ai/ha): 100%
pest or weed control at 250 g/ha ([1]; 250 g ai/ha, scale 0 to 100): 100%
pest or weed control at 62 g/ha (wild oat (Avena fatua); 62 g ai/ha): 0%
pest or weed control at 125 g/ha (wild oat (Avena fatua); 125 g ai/ha): 0%
pest or weed control at 250 g/ha (wild oat (Avena fatua); 250 g ai/ha, scale 0 to 100): 0%
pest or weed control at 62 g/ha [2, 10]: 100%
pest or weed control at 125 g/ha [2, 10]: 100%
pest or weed control at 250 g/ha [2, 11]: 100%
pest or weed control at 62 g/ha [2, 12]: 60%
pest or weed control at 125 g/ha [2, 12]: 98%
pest or weed control at 250 g/ha ([2]; pre-emergence, Preemergence): 100%
pest or weed control at 500 g/ha [2, 13]: 100%
plant injury at 62 g/ha [3, 14]: 0%
plant injury at 125 g/ha [3, 14]: 0%
plant injury at 250 g/ha [3, 11]: 0%
plant injury at 62 g/ha [3, 15]: 0%
plant injury at 125 g/ha [3, 15]: 0%
plant injury at 250 g/ha ([3]; pre-emergence, Preemergence): 0%
plant injury at 31 g/ha (corn (Zea mays); post-emergence, Postemergence, 31 g ai/ha): 0%
plant injury at 62 g/ha (corn (Zea mays); post-emergence, Postemergence, 62 g ai/ha): 0%
plant injury at 125 g/ha (corn (Zea mays); post-emergence, Postemergence, 125 g ai/ha): 0%
Corn plant response rating (crop injury, 0 = no effect, 100 = complete kill) at 250 g/ha (corn (Zea mays); [11]): 0%
Corn plant response rating (crop injury, 0 = no effect, 100 = complete kill) at 62 g/ha (corn (Zea mays); pre-emergence, Preemergence, 62 g ai/ha): 0%
Corn plant response rating (crop injury, 0 = no effect, 100 = complete kill) at 125 g/ha (corn (Zea mays); pre-emergence, Preemergence, 125 g ai/ha): 0%
Corn plant response rating (crop injury, 0 = no effect, 100 = complete kill) at 250 g/ha (corn (Zea mays); pre-emergence, Preemergence): 0%
Corn plant response rating (crop injury, 0 = no effect, 100 = complete kill) at 500 g/ha (corn (Zea mays); [13]): 0%
pest or weed control at 62 g/ha [4, 16]: 0%
pest or weed control at 125 g/ha [4, 16]: 0%
pest or weed control at 250 g/ha [4, 11]: 0%
pest or weed control at 62 g/ha [4, 17]: 0%
pest or weed control at 125 g/ha [4, 17]: 0%
pest or weed control at 250 g/ha ([4]; pre-emergence, Preemergence): 0%
pest or weed control at 500 g/ha [4, 13]: 0%
plant injury at 62 g/ha (soybean (Glycine max); [18]): 0%
plant injury at 125 g/ha (soybean (Glycine max); [18]): 0%
plant injury at 250 g/ha (soybean (Glycine max); [11]): 0%
plant injury at 62 g/ha (soybean (Glycine max); [19]): 0%
plant injury at 125 g/ha (soybean (Glycine max); [19]): 0%
plant injury at 250 g/ha (soybean (Glycine max); pre-emergence, Preemergence): 0%
plant injury at 500 g/ha (soybean (Glycine max); [13]): 0%
pest or weed control at 62 g/ha [5, 20]: 60%
pest or weed control at 125 g/ha [5, 20]: 80%
pest or weed control at 250 g/ha [5, 11]: 100%
pest or weed control at 62 g/ha [5, 21]: 100%
pest or weed control at 125 g/ha [5, 21]: 100%
pest or weed control at 250 g/ha ([5]; pre-emergence, Preemergence): 100%
pest or weed control at 500 g/ha [5, 13]: 100%
pest or weed control at 62 g/ha [6, 22]: 0%
pest or weed control at 125 g/ha [6, 22]: 0%
pest or weed control at 250 g/ha [6, 11]: 0%
pest or weed control at 62 g/ha [6, 23]: 0%
pest or weed control at 125 g/ha [6, 23]: 0%
pest or weed control at 250 g/ha ([6]; pre-emergence, Preemergence): 0%
pest or weed control at 500 g/ha [6, 13]: 0%
pest or weed control at 31 g/ha ([7]; post-emergence, Postemergence, 31 g ai/ha, read-out: Plant response rating (0 to 100), Foxtail, Giant): 0%
pest or weed control at 62 g/ha [7, 24]: 0%
pest or weed control at 125 g/ha [7, 24]: 0%
pest or weed control at 250 g/ha [7, 11]: 0%
pest or weed control at 62 g/ha [7, 25]: 0%
pest or weed control at 125 g/ha [7, 25]: 0%
pest or weed control at 250 g/ha ([7]; pre-emergence, Preemergence): 0%
pest or weed control at 500 g/ha [7, 13]: 0%
pest or weed control at 31 g/ha ([8]; post-emergence, Postemergence, 31 g ai/ha, read-out: Plant response rating (0 to 100), Galium): 0%
pest or weed control at 62 g/ha [8, 26]: 0%
pest or weed control at 125 g/ha [8, 26]: 5%
pest or weed control at 250 g/ha [8, 11]: 5%
pest or weed control at 62 g/ha [8, 27]: 0%
pest or weed control at 125 g/ha [8, 27]: 0%
pest or weed control at 250 g/ha ([8]; pre-emergence, Preemergence): 5%
pest or weed control at 500 g/ha [8, 13]: 10%
pest or weed control at 62 g/ha [9, 28]: 0%
pest or weed control at 125 g/ha [9, 28]: 0%
pest or weed control at 250 g/ha [9, 11]: 0%
pest or weed control at 62 g/ha [9, 29]: 0%
pest or weed control at 125 g/ha [9, 29]: 0%
pest or weed control at 250 g/ha ([9]; pre-emergence, Preemergence): 0%
pest or weed control at 500 g/ha [9, 13]: 0%
